Laboratory results taken from article PMC10657444, “Design and evaluation of tadpole-like conformational antimicrobial peptides” (Communications Biology, 2023).
Converted amounts (≈) assume the structure as drawn. Like-named read-outs stand apart in the source and are kept apart here.

Tested on: MRSA USA 300
Assay: microbe, parasite or virus in culture
Assay type: cell-based, Staphylococcus aureus
Conditions: for MIC: Staphylococcus aureus
Experimental: MRSA USA 300 and K. pneumoniae ATCC 700603 were employed to assess the development of resistance. From inoculated microtiter panels, an aliquot of the well with the highest concentration permitting growth was taken and back diluted in fresh media to a turbidity of a 0.5 McFarland standard. This suspension was then further diluted and used to inoculate a fresh MIC panel resulting in a final concentration of 5 × 10^6 CFU/mL. Panels were incubated according to CLSI guidelines (M07, 11th edition, 2018), MICs were recorded and the next inoculum was prepared from the well containing the highest concentration of drug that allowed growth in identical fashion as described above.

Question: Which MIC (0 h, read-out: Concentration (MIC in drug resistance assay), MRSA USA 300, day 0) does the source give for `O=C(O)c1cn(C2CC2)c2cc(N3CCNCC3)c(F)cc2c1=O` [ciprofloxacin, reference compound] here?
Answer: 1 µg/mL (≈ 3.02 µM)

Question: What about the MIC (24 h, read-out: Concentration (MIC in drug resistance assay), MRSA USA 300, day 1) of the same compound?
Answer: 0.5 µg/mL (≈ 1.51 µM)

Question: And the MIC (48 h, read-out: Concentration (MIC in drug resistance assay), MRSA USA 300, day 2)?
Answer: 1 µg/mL (≈ 3.02 µM)

Question: And the MIC (72 h, read-out: Concentration (MIC in drug resistance assay), MRSA USA 300, day 3)?
Answer: 1 µg/mL (≈ 3.02 µM)

Question: And the MIC (96 h, read-out: Concentration (MIC in drug resistance assay), MRSA USA 300, day 4)?
Answer: 2 µg/mL (≈ 6.04 µM)

Question: What about the MIC (120 h, read-out: Concentration (MIC in drug resistance assay), MRSA USA 300, day 5) of the same compound?
Answer: 1 µg/mL (≈ 3.02 µM)

Question: What about the MIC (144 h, read-out: Concentration (MIC in drug resistance assay), MRSA USA 300, day 6) of the same compound?
Answer: 1 µg/mL (≈ 3.02 µM)

Question: What about the MIC (168 h, read-out: Concentration (MIC in drug resistance assay), MRSA USA 300, day 7) of the same compound?
Answer: 2 µg/mL (≈ 6.04 µM)

Question: What about the MIC (192 h, read-out: Concentration (MIC in drug resistance assay), MRSA USA 300, day 8) of the same compound?
Answer: 4 µg/mL (≈ 12.1 µM)

Question: And the MIC (216 h, read-out: Concentration (MIC in drug resistance assay), MRSA USA 300, day 9)?
Answer: 4 µg/mL (≈ 12.1 µM)

Question: And the MIC (240 h, read-out: Concentration (MIC in drug resistance assay), MRSA USA 300, day 10)?
Answer: 2 µg/mL (≈ 6.04 µM)

Question: And the MIC (264 h, read-out: Concentration (MIC in drug resistance assay), MRSA USA 300, day 11)?
Answer: 1 µg/mL (≈ 3.02 µM)

Question: What about the MIC (288 h, read-out: Concentration (MIC in drug resistance assay), MRSA USA 300, day 12) of the same compound?
Answer: 4 µg/mL (≈ 12.1 µM)

Question: And the MIC (312 h, read-out: Concentration (MIC in drug resistance assay), MRSA USA 300, day 13)?
Answer: 2 µg/mL (≈ 6.04 µM)

Question: And the MIC (336 h, read-out: Concentration (MIC in drug resistance assay), MRSA USA 300, day 14)?
Answer: 2 µg/mL (≈ 6.04 µM)

Question: What about the MIC (360 h, read-out: Concentration (MIC in drug resistance assay), MRSA USA 300, day 15) of the same compound?
Answer: 2 µg/mL (≈ 6.04 µM)

Question: And the MIC (384 h, read-out: Concentration (MIC in drug resistance assay), MRSA USA 300, day 16)?
Answer: 2 µg/mL (≈ 6.04 µM)

Question: And the MIC (408 h, read-out: Concentration (MIC in drug resistance assay), MRSA USA 300, day 17)?
Answer: 2 µg/mL (≈ 6.04 µM)

Question: What about the MIC (432 h, read-out: Concentration (MIC in drug resistance assay), MRSA USA 300, day 18) of the same compound?
Answer: 2 µg/mL (≈ 6.04 µM)

Question: What about the MIC (456 h, read-out: Concentration (MIC in drug resistance assay), MRSA USA 300, day 19) of the same compound?
Answer: 2 µg/mL (≈ 6.04 µM)

Question: What about the MIC (480 h, read-out: Concentration (MIC in drug resistance assay), MRSA USA 300, day 20) of the same compound?
Answer: 4 µg/mL (≈ 12.1 µM)

Question: What about the MIC (504 h, read-out: Concentration (MIC in drug resistance assay), MRSA USA 300, day 21) of the same compound?
Answer: 2 µg/mL (≈ 6.04 µM)

Question: And the MIC (528 h, read-out: Concentration (MIC in drug resistance assay), MRSA USA 300, day 22)?
Answer: 2 µg/mL (≈ 6.04 µM)

Question: What about the MIC (552 h, read-out: Concentration (MIC in drug resistance assay), MRSA USA 300, day 23) of the same compound?
Answer: 2 µg/mL (≈ 6.04 µM)

Question: What about the MIC (576 h, read-out: Concentration (MIC in drug resistance assay), MRSA USA 300, day 24) of the same compound?
Answer: 2 µg/mL (≈ 6.04 µM)

Question: What about the MIC (600 h, read-out: Concentration (MIC in drug resistance assay), MRSA USA 300, day 25) of the same compound?
Answer: 2 µg/mL (≈ 6.04 µM)

Question: What about the MIC (624 h, read-out: Concentration (MIC in drug resistance assay), MRSA USA 300, day 26) of the same compound?
Answer: 4 µg/mL (≈ 12.1 µM)

Question: And the MIC (648 h, read-out: Concentration (MIC in drug resistance assay), MRSA USA 300, day 27)?
Answer: 2 µg/mL (≈ 6.04 µM)

Question: What about the MIC (672 h, read-out: Concentration (MIC in drug resistance assay), MRSA USA 300, day 28) of the same compound?
Answer: 2 µg/mL (≈ 6.04 µM)

Question: What about the MIC (696 h, read-out: Concentration (MIC in drug resistance assay), MRSA USA 300, day 29) of the same compound?
Answer: 2 µg/mL (≈ 6.04 µM)

Question: And the MIC (read-out: Concentration (MIC in drug resistance assay), MRSA USA 300, day 30)?
Answer: 4 µg/mL (≈ 12.1 µM)

Question: And the MIC (read-out: Concentration (MIC in drug resistance assay), MRSA USA 300, day 31)?
Answer: 8 µg/mL (≈ 24.1 µM)

Question: And the MIC (read-out: Concentration (MIC in drug resistance assay), MRSA USA 300, day 32)?
Answer: 32 µg/mL (≈ 96.6 µM)

Question: What about the MIC (read-out: Concentration (MIC in drug resistance assay), MRSA USA 300, day 33) of the same compound?
Answer: 16 µg/mL (≈ 48.3 µM)

Question: What about the MIC (read-out: Concentration (MIC in drug resistance assay), MRSA USA 300, day 34) of the same compound?
Answer: 16 µg/mL (≈ 48.3 µM)

Question: What about the MIC (read-out: Concentration (MIC in drug resistance assay), MRSA USA 300, day 35) of the same compound?
Answer: 16 µg/mL (≈ 48.3 µM)

Question: What about the MIC (read-out: Concentration (MIC in drug resistance assay), MRSA USA 300, day 36) of the same compound?
Answer: 32 µg/mL (≈ 96.6 µM)

Question: And the MIC (read-out: Concentration (MIC in drug resistance assay), MRSA USA 300, day 37)?
Answer: 32 µg/mL (≈ 96.6 µM)

Question: And the MIC (read-out: Concentration (MIC in drug resistance assay), MRSA USA 300, day 38)?
Answer: 32 µg/mL (≈ 96.6 µM)

Question: What about the MIC (read-out: Concentration (MIC in drug resistance assay), MRSA USA 300, day 39) of the same compound?
Answer: 63 µg/mL (≈ 190 µM)

Question: And the MIC (read-out: Concentration (MIC in drug resistance assay), MRSA USA 300, day 40)?
Answer: 64 µg/mL (≈ 193 µM)

Question: And the “increase in MIC after 40 passages” value (serial passage at sub-MIC)?
Answer: 64 fold
